Values of other authors as cited in patent publication US6495170B1, “Method of increasing the presence of glutathione in cells” (N. V. Nutricia, priority 2000, dated 2002).

Legend:
[1] = mice, ethanol-induced liver peroxidation, pretreatment 200 mg/kg
hepatic glutathione = conditions: induced by ethyl alcohol and paracetamol, rats
[2] = tested on: glutathione-S-transferase
[3] = tested on: hepatoblastoma Hep G2 cells
γ-GCS = conditions: mediated by increased expression of γ-GCS mRNA and enzyme activity via AP-1
[4] = 50 mg/kg p.o., mice treated with CCl4
[5] = ingested in large amounts
[6] = 200 μg/day supplement for 2 months

Compound: COc1cc2c(c(OC)c1OC)-c1c(cc3c(c1OC)OCO3)CC(C)C(C)C2 (stereo not shown) [schisandrin B]
- GSH-peroxidase activity [1]: unaffected
- dismutase and catalase activity [1]: increased
- GSH/GSSG ratio (mitochondrial GSH; 3 mmol/kg/day p.o.): elevating
- GSSG level (mitochondrial GSH; 3 mmol/kg/day p.o.): decreased
- mitochondrial GSH level (mitochondrial GSH; 3 mmol/kg/day p.o.): increased
- mitochondrial GSH reductase activity (mitochondrial GSH; 3 mmol/kg/day p.o.): increased

Compound: COc1cc(C2Oc3cc([C@H]4Oc5cc(O)cc(O)c5C(=O)[C@@H]4O)ccc3OC2CO)ccc1O (stereo partly shown) [silybin]
- superoxide and hydrogen peroxide production (human neutrophils): inhibitory effects
- activity of superoxide dismutase and glutathione peroxidase (human erythrocytes): increased
- hepatic glutathione depletion (hepatic glutathione): protect
- GSH depletion by buthionine sulfoximide (isolated rat hepatocytes): does not affect
- GSH depletion induced by acetaminophen (isolated rat hepatocytes): reduces
- inhibition of glutathione-S-transferase [2]: potent, non-toxic, inhibitor

Compound: silymarin
- acetaminophen-induced GSH depletion and cytotoxicity [3]: protects

Compound: COc1cc(C(C)=O)ccc1O [Apocynin]
- intracellular GSH synthesis (γ-GCS): enhances

Compound: COc1cc(C(=O)O[C@H]2[C@@H]3C=CO[C@@H](O[C@@H]4O[C@H](CO)[C@@H](O)[C@H](O)[C@H]4O)[C@@H]3[C@@]3(CO)O[C@@H]23)ccc1O [Picroside II]
- hepatoprotective activity [4]: showed a hepatoprotective activity

Compound: CC(=O)Nc1ccc(O)cc1 [Acetaminophen, acetaminophen]
- hepatotoxicity [5]: severe hepatic necrosis

Compound: O=NN(CCCl)C(=O)NCCCl [BCNU]
- GSH reductase activity (mitochondrial GSH; CCl4-intoxicated mice): inhibited
- effect on the protective activity of schisandrin B (mitochondrial GSH; CCl4-intoxicated mice): did not affect

Compound: [Zn] [zinc, Zinc]
- plasma zinc bound to RBP: < 2%
- plasma zinc bound to albumin: 80-85%
- plasma zinc bound to alpha2-macroglobulin: 15%

Compound: COc1cc2c(c(O)c1OC)-c1c(cc(OC)c(OC)c1OC)C[C@@H](C)[C@@H](C)C2 [schisanhenol]
- GSH-peroxidase activity [1]: unaffected
- dismutase and catalase activity [1]: increased

Compound: [Se] [Selenium]
- peroxidative parameters [6]: no effect
- plasma selenium levels and glutathione peroxidase [6]: significantly improved
